molecular target: TBK1 (Homo sapiens (Human), UniProt Q9UHD2); assay: TBK1 low ATP kinase assay (in vitro assay 1); assay type: biochemical; conditions: in vitro assay 1, read-out: TBK1 low ATP kinase assay IC50
Sequence (Q9UHD2 whole entry): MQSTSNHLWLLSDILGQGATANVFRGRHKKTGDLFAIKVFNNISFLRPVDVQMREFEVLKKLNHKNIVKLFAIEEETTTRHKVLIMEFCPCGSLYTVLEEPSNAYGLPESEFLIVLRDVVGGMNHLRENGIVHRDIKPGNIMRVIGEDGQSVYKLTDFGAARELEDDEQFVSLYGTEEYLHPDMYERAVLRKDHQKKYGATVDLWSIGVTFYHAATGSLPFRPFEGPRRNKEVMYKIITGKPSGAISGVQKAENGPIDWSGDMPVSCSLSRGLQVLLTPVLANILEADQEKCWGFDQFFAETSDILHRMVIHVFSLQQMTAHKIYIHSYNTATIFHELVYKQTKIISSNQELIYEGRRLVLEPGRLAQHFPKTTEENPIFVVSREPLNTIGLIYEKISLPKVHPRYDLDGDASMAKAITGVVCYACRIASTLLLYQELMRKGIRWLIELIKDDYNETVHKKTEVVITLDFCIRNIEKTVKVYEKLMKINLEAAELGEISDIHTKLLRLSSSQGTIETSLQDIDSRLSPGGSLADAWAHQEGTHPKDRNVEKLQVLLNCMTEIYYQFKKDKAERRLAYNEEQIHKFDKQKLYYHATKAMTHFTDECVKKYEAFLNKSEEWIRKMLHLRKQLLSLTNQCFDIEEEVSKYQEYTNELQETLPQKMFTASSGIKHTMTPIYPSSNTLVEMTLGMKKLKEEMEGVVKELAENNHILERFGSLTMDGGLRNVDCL

SMILES | IC50 [µM]
O=C(CC(F)(F)F)N1CCN(Cc2ccnc(Nc3nc4ccc(-c5ccnc(F)c5)cc4[nH]3)c2)CC1 [Example 137.02, 3,3,3-trifluoro-1-{4-[(2-{[6-(2-fluoropyridin-4-yl)-1H-benzimidazol-2-yl]amino}pyridin-4-yl)methyl]piperazin-1-yl}propan-1-one] | 0.0058
O=C(C1CC1)N1CCN(Cc2ccnc(Nc3nc4ccc(-c5ccnc(F)c5)cc4[nH]3)c2)CC1 [Example 137.03, cyclopropyl{4-[(2-{[6-(2-fluoropyridin-4-yl)-1H-benzimidazol-2-yl]amino}pyridin-4-yl)methyl]piperazin-1-yl}methanone] | 0.02
CC(C)(C)OC(=O)N1CCN(Cc2ccnc(Nc3nc4ccc(-c5ccnc(N)c5)cc4[nH]3)c2)CC1 [Example 138.01, tert-butyl 4-[(2-{[6-(2-aminopyridin-4-yl)-1H-benzimidazol-2-yl]amino}pyridin-4-yl)methyl]piperazine-1-carboxylate] | 0.0058
Nc1cc(-c2ccc3nc(Nc4cc(CN5CCN(C(=O)CC(F)(F)F)CC5)ccn4)[nH]c3c2)ccn1 [Example 138.02, 1-{4-[(2-{[6-(2-aminopyridin-4-yl)-1H-benzimidazol-2-yl]amino}pyridin-4-yl)methyl]piperazin-1-yl}-3,3,3-trifluoropropan-1-one] | 0.0041
Nc1cc(-c2ccc3nc(Nc4cc(CN5CCN(C(=O)C6CC6)CC5)ccn4)[nH]c3c2)ccn1 [Example 138.03, {4-[(2-{[6-(2-aminopyridin-4-yl)-1H-benzimidazol-2-yl]amino}pyridin-4-yl)methyl]piperazin-1-yl}(cyclopropyl)methanone] | 0.0043
CC(C)(C)OC(=O)N1CCN(Cc2ccnc(Nc3nc4ccc(-c5ccnc(C(F)F)c5)cc4[nH]3)c2)CC1 [Example 139.01, tert-butyl 4-{[2-({6-[2-(difluoromethyl)pyridin-4-yl]-1H-benzimidazol-2-yl}amino)pyridin-4-yl]methyl}piperazine-1-carboxylate] | 0.055
O=C(CC(F)(F)F)N1CCN(Cc2ccnc(Nc3nc4ccc(-c5ccnc(C(F)F)c5)cc4[nH]3)c2)CC1 [Example 139.02, 1-(4-{[2-({6-[2-(difluoromethyl)pyridin-4-yl]-1H-benzimidazol-2-yl}amino)pyridin-4-yl]methyl}piperazin-1-yl)-3,3,3-trifluoropropan-1-one] | 0.015
O=C(C1CC1)N1CCN(Cc2ccnc(Nc3nc4ccc(-c5ccnc(C(F)F)c5)cc4[nH]3)c2)CC1 [Example 139.03, cyclopropyl(4-{[2-({6-[2-(difluoromethyl)pyridin-4-yl]-1H-benzimidazol-2-yl}amino)pyridin-4-yl]methyl}piperazin-1-yl)methanone] | 0.0097
CN(C)c1cc(-c2ccc3nc(Nc4cc(CN5CCN(C(=O)CC(F)(F)F)CC5)ccn4)[nH]c3c2)ncn1 [Example 143.02, 1-(4-{[2-({6-[6-(dimethylamino)pyrimidin-4-yl]-1H-benzimidazol-2-yl}amino)pyridin-4-yl]methyl}piperazin-1-yl)-3,3,3-trifluoropropan-1-one] | 0.0082

Next, values leading:

IC50 [µM] | SMILES
0.013 | CC(C)(C)OC(=O)N1CCN(Cc2ccnc(Nc3nc4ccc(-c5cnc(Br)cn5)cc4[nH]3)c2)CC1 [Example 140.01, tert-butyl 4-[(2-{[6-(5-bromopyrazin-2-yl)-1H-benzimidazol-2-yl]amino}pyridin-4-yl)methyl]piperazine-1-carboxylate]
0.54 | O=C(CC(F)(F)F)N1CCN(Cc2ccnc(Nc3nc4ccc(-c5cnc(Cl)cn5)cc4[nH]3)c2)CC1 [Example 140.02, 1-{4-[(2-{[6-(5-chloropyrazin-2-yl)-1H-benzimidazol-2-yl]amino}pyridin-4-yl)methyl]piperazin-1-yl}-3,3,3-trifluoropropan-1-one]
0.29 | O=C(C1CC1)N1CCN(Cc2ccnc(Nc3nc4ccc(-c5cnc(Cl)cn5)cc4[nH]3)c2)CC1 [Example 140.03, {4-[(2-{[6-(5-chloropyrazin-2-yl)-1H-benzimidazol-2-yl]amino}pyridin-4-yl)methyl]piperazin-1-yl}(cyclopropyl)methanone]
0.043 | CN(CC1CC1)c1cc(-c2ccc3nc(Nc4cc(CN5CCN(C(=O)OC(C)(C)C)CC5)ccn4)[nH]c3c2)ncn1 [Example 141.01, tert-butyl 4-({2-[(6-{6-[(cyclopropylmethyl)(methyl)amino]pyrimidin-4-yl}-1H-benzimidazol-2-yl)amino]pyridin-4-yl}methyl)piperazin-1-carboxylate]
0.019 | CN(CC1CC1)c1cc(-c2ccc3nc(Nc4cc(CN5CCN(C(=O)CC(F)(F)F)CC5)ccn4)[nH]c3c2)ncn1 [Example 141.02, 1-[4-({2-[(6-{6-[(cyclopropylmethyl)(methyl)amino]pyrimidin-4-yl}-1H-benzimidazol-2-yl)amino]pyridin-4-yl}methyl)piperazin-1-yl]-3,3,3-trifluoropropan-1-one]
0.013 | CN(CC1CC1)c1cc(-c2ccc3nc(Nc4cc(CN5CCN(C(=O)C6CC6)CC5)ccn4)[nH]c3c2)ncn1 [Example 141.03, cyclopropyl[4-({2-[(6-{6-[(cyclopropylmethyl)(methyl)amino]pyrimidin-4-yl}-1H-benzimidazol-2-yl)amino]pyridin-4-yl}methyl)piperazin-1-yl]methanone]
0.0075 | CC(C)(C)OC(=O)N1CCN(Cc2ccnc(Nc3nc4ccc(-c5cc(NCC6CC6)ncn5)cc4[nH]3)c2)CC1 [Example 142.01, tert-butyl 4-({2-[(6-{6-[(cyclopropylmethyl)amino]pyrimidin-4-yl}-1H-benzimidazol-2-yl)amino]pyridin-4-yl}methyl)piperazine-1-carboxylate]
0.0066 | O=C(CC(F)(F)F)N1CCN(Cc2ccnc(Nc3nc4ccc(-c5cc(NCC6CC6)ncn5)cc4[nH]3)c2)CC1 [Example 142.02, 1-[4-({2-[(6-{6-[(cyclopropylmethyl)amino]pyrimidin-4-yl}-1H-benzimidazol-2-yl)amino]pyridin-4-yl}methyl)piperazin-1-yl]-3,3,3-trifluoropropan-1-one]
0.003 | O=C(C1CC1)N1CCN(Cc2ccnc(Nc3nc4ccc(-c5cc(NCC6CC6)ncn5)cc4[nH]3)c2)CC1 [Example 142.03, cyclopropyl[4-({2-[(6-{6-[(cyclopropylmethyl)amino]pyrimidin-4-yl}-1H-benzimidazol-2-yl)amino]pyridin-4-yl}methyl)piperazin-1-yl]methanone]
0.018 | CN(C)c1cc(-c2ccc3nc(Nc4cc(CN5CCN(C(=O)OC(C)(C)C)CC5)ccn4)[nH]c3c2)ncn1 [Example 143.01, tert-butyl 4-{[2-({6-[6-(dimethylamino)pyrimidin-4-yl]-1H-benzimidazol-2-yl}amino)pyridin-4-yl]methyl}piperazine-1-carboxylate]
0.0048 | CN(C)c1cc(-c2ccc3nc(Nc4cc(CN5CCN(C(=O)C6CC6)CC5)ccn4)[nH]c3c2)ncn1 [Example 143.03, cyclopropyl(4-{[2-({6-[6-(dimethylamino)pyrimidin-4-yl]-1H-benzimidazol-2-yl}amino)pyridin-4-yl]methyl}piperazin-1-yl)methanone]
0.51 | CN(C)c1cnc(-c2ccc3nc(Nc4cc(CN5CCN(C(=O)OC(C)(C)C)CC5)ccn4)[nH]c3c2)cn1 [Example 144.01, tert-butyl 4-{[2-({6-[5-(dimethylamino)pyrazin-2-yl]-1H-benzimidazol-2-yl}amino)pyridin-4-yl]methyl}piperazine-1-carboxylate]
